Measured values: paper PMC4467469 (Methods in molecular biology (Clifton, N.J.), 2012)

Target: Cdc42 (Homo sapiens, UniProt P60953)
Assay: equilibrium binding by flow cytometry on beads

Sequence of Cdc42 (P60953 1-188): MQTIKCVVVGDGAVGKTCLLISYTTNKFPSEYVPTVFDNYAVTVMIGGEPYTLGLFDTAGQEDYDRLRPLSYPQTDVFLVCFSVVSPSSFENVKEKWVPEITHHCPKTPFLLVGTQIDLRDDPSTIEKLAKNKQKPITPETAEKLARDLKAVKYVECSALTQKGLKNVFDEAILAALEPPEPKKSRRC

Compound Cc1cc(C)n2c1C=C1C=CC(CCC(=O)NCCNC(=O)OC3C(COP(=O)(O)OP(=O)(O)OP(=O)(O)O)OC(n4cnc5c(=O)[nH]c(N)nc54)C3O)=[N+]1[B-]2(F)F (stereo not shown) [BODIPY-FL-GTP] has a Kd of 0.6 nM.
